Columns and labels:
[1] = tested on: Pfeiffer cell line (diffuse large B cell lymphoma); experiment: Example B2: Pfeiffer cell proliferation assay; assay type: cell-based; settings: Pfeiffer cells, [3H]-thymidine incorporation
Experimental: Pfeiffer cell line (diffuse large B cell lymphoma) are purchased from ATCC (Manassas, Va.) and maintained in the culture medium recommended (RPMI and 10% FBS). To measure the anti-proliferation activity of the compounds, the Pfeiffer cells are plated with the culture medium (2×10^3 cells/well/per 200 μl) into 96-well ultra-low binding plates (Corning, Corning, N.Y.), in the presence or absence of a concentration range of test compounds. After 3-4 days, [^3H]-thymidine (1 μCi/well) (PerkinElmer, Boston, Mass.) in PBS is then added to the cell culture for an additional 12 hours before the incorporated radioactivity is separated by filtration with water through GF/B filters (Packard Bioscience, Meridenj, Conn.) and measured by liquid scintillation counting with a TopCount (Packard Bioscience).

[2] = target: PI3Kδ (p110δ/p85α) (Homo sapiens (Human), UniProt O00329); experiment: Example A3: PI3Kδ scintillation proximity assay; assay type: biochemical; settings: scintillation proximity assay, 20 μM ATP, 4 nM PI3Kδ; read-out: PI3Kδ SPA IC50
In short: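 p110δ/p85α (4 nM) phosphorylated 20 μM PIP2 with 20 μM ATP plus [γ-33P]ATP in MOPS pH 6.7, MgCl2, DTT, CHAPS, 0.5% DMSO, at RT. Stopped with EDTA/excess ATP, product captured on WGA SPA beads overnight and counted; IC50 from percent control activity versus log inhibitor.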

Sequence of PI3Kδ (p110δ/p85α) (O00329 whole entry): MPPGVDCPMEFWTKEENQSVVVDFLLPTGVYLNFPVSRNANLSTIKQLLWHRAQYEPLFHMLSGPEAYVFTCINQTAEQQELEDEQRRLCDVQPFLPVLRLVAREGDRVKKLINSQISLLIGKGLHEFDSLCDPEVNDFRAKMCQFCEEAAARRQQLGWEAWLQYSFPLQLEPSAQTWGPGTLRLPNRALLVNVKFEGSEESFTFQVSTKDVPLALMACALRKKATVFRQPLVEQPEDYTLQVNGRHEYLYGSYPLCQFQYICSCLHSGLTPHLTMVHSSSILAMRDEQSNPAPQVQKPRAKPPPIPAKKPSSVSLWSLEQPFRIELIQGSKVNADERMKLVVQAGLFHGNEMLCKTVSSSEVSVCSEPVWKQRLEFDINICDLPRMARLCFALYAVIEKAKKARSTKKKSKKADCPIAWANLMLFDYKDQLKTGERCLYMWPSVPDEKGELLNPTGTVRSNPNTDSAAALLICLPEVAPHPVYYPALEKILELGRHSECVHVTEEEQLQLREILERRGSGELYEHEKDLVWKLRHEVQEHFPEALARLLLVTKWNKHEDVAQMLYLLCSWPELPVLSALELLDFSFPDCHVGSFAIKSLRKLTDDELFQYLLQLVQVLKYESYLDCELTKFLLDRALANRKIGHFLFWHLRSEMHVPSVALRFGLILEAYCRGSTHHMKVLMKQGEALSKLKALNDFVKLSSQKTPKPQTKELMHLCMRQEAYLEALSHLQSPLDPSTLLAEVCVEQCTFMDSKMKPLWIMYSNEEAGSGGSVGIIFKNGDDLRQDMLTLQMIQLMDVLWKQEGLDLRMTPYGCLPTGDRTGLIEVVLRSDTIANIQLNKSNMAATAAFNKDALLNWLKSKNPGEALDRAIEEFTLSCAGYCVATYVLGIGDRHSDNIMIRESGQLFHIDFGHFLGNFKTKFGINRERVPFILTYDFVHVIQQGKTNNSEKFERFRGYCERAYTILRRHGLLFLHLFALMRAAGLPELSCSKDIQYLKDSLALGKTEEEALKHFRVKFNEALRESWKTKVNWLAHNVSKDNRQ
Sequence of PI3Kδ (p110δ/p85α) (P27986 whole entry partner): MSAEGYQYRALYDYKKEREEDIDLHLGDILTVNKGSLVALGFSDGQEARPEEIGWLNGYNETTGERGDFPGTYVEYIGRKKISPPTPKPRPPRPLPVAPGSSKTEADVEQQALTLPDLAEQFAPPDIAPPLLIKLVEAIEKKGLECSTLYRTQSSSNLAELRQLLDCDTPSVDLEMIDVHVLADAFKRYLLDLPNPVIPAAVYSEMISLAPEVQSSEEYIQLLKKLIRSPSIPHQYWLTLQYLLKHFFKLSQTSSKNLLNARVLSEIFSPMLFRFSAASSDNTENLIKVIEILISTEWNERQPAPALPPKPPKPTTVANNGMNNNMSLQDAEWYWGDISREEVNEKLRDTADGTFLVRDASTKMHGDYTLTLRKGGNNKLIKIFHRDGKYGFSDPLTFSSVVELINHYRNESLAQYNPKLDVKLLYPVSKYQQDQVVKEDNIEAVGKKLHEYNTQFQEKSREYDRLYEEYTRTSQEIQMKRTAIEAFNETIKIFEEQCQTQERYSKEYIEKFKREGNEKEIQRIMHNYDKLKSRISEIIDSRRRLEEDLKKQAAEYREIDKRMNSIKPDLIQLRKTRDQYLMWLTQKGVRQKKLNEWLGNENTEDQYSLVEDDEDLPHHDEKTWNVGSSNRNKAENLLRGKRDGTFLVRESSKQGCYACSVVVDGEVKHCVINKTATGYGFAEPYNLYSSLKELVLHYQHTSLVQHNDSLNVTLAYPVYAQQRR

| SMILES | IC50 ([1]; Homo sapiens, Pfeiffer) | IC50 [2] | IC50 [1] |
| --- | --- | --- | --- |
| COc1c(C(C)n2nc(C)c3c(N)ncnc32)cc(Cl)c(C)c1C1CN(C(C)CF)C1 (centres unmarked) [Example 114, 1-(1-{5-Chloro-3-[1-(2-fluoro-1-methylethyl)azetidin-3-yl]-2-methoxy-4-methylphenyl}ethyl)-3-methyl-1H-pyrazolo[3,4-d]pyrimidin-4-amine] | < 10 nM | < 10 nM |  |
| CCOc1c(C(C)n2nc(C)c3c(N)ncnc32)cc(Cl)c(C)c1C1CN(C[C@H](C)O)C1 (stereo partly drawn) [Example 96, (2S)-1-(3-{3-[1-(4-Amino-3-methyl-1H-pyrazolo[3,4-d]pyrimidin-1-yl)ethyl]-5-chloro-2-ethoxy-6-methylphenyl}azetidin-1-yl)propan-2-ol bis(trifluoroacetate)] | < 10 nM | < 10 nM |  |
| CCOc1c(C(C)n2nc(C)c3c(N)ncnc32)cc(Cl)c(F)c1C1CN(C[C@@H](C)O)C1 (stereo partly drawn) [Example 142, (2R)-1-(3-{3-[1-(4-Amino-3-methyl-1H-pyrazolo[3,4-d]pyrimidin-1-yl)ethyl]-5-chloro-2-ethoxy-6-fluorophenyl}azetidin-1-yl)propan-2-ol] | < 10 nM | < 10 nM |  |
| CCOc1c(C(C)n2nc(C)c3c(N)ncnc32)cc(Cl)c(F)c1C1CN(CC(C)(C)O)C1 (racemic) [Example 140, 1-(3-{3-[1-(4-Amino-3-methyl-1H-pyrazolo[3,4-d]pyrimidin-1-yl)ethyl]-5-chloro-2-ethoxy-6-fluorophenyl}azetidin-1-yl)-2-methylpropan-2-ol] | < 10 nM | < 10 nM |  |
| CCOc1c(C(C)n2nc(C)c3c(N)ncnc32)cc(Cl)c(F)c1C1CN(C(C)C)C1 (centres unmarked) [Example 139, 1-{1-[5-Chloro-2-ethoxy-4-fluoro-3-(1-isopropylazetidin-3-yl)phenyl]ethyl}-3-methyl-1H-pyrazolo[3,4-d]pyrimidin-4-amine] | < 10 nM | < 10 nM |  |
| COc1c(C(C)n2nc(C)c3c(N)ncnc32)cc(Cl)c(C)c1C1CN(C[C@@H](C)O)C1 (single isomer, unassigned) [Example 103] |  | < 10 nM | 10 to 50 nM |
| COc1c(C(C)n2nc(C)c3c(N)ncnc32)cc(Cl)c(C)c1C1CN(CC(C)O)C1 (stereo in doubt) [Example 102, (2S)-1-(3-{3-[1-(4-Amino-3-methyl-1H-pyrazolo[3,4-d]pyrimidin-1-yl)ethyl]-5-chloro-2-methoxy-6-methylphenyl}azetidin-1-yl)propan-2-ol] | < 10 nM | < 10 nM |  |
| COc1c(C(C)n2nc(C)c3c(N)ncnc32)cc(Cl)c(C)c1C1CN(CCO)C1 (single isomer, unassigned) [Example 104, 2-(3-{3-[1-(4-Amino-3-methyl-1H-pyrazolo[3,4-d]pyrimidin-1-yl)ethyl]-5-chloro-2-methoxy-6-methylphenyl}azetidin-1-yl)ethanol] | 10 to 50 nM | < 10 nM |  |
| COc1c(C(C)n2nc(C)c3c(N)ncnc32)cc(Cl)c(C)c1C1CN(CC(N)=O)C1 (single isomer, unassigned) [Example 111, 2-(3-{3-[1-(4-Amino-3-methyl-1H-pyrazolo[3,4-d]pyrimidin-1-yl)ethyl]-5-chloro-2-methoxy-6-methylphenyl}azetidin-1-yl)acetamide] | < 10 nM |  |  |
| CCOc1c(C(C)n2nc(C)c3c(N)ncnc32)cc(Cl)c(F)c1C1CN(C[C@H](C)O)C1 (stereo partly drawn) [Example 149, (2S)-1-(3-{3-[1-(4-Amino-3-methyl-1H-pyrazolo[3,4-d]pyrimidin-1-yl)ethyl]-5-chloro-2-ethoxy-6-fluorophenyl}azetidin-1-yl)propan-2-ol] | < 10 nM |  |  |

Second part, the molecule after the results:

| IC50 ([1]; Homo sapiens, Pfeiffer) | IC50 [2] | IC50 [1] | SMILES |
| --- | --- | --- | --- |
| < 10 nM | < 10 nM |  | CCOc1c(C(C)n2nc(C(F)F)c3c(N)ncnc32)cc(Cl)c(F)c1C1CN(C[C@H](C)O)C1 (stereo partly drawn) [Example 154, (2S)-1-[3-(3-{1-[4-Amino-3-(difluoromethyl)-1H-pyrazolo[3,4-d]pyrimidin-1-yl]ethyl}-5-chloro-2-ethoxy-6-fluorophenyl)azetidin-1-yl]propan-2-ol] |
| < 10 nM | < 10 nM |  | COc1c(C(C)n2nc(C)c3c(N)ncnc32)cc(Cl)c(C#N)c1C1CN(C[C@H](C)O)C1 (stereo partly drawn) [Example 269, 4-[1-(4-Amino-3-methyl-1H-pyrazolo[3,4-d]pyrimidin-1-yl)ethyl]-6-chloro-2-{1-[(2S)-2-hydroxypropyl]azetidin-3-yl}-3-methoxybenzonitrile] |
| < 10 nM | < 10 nM |  | COc1c(C(C)n2nc(C)c3c(N)ncnc32)cc(C)c(C#N)c1C1CN(C[C@H](C)O)C1 (single isomer, unassigned) [Example 315] |
| < 10 nM | < 10 nM |  | COc1c(C(C)n2nc(C)c3c(N)ncnc32)cc(Cl)c(C#N)c1C1CN(CCO)C1 (single isomer, unassigned) [Example 268, 4-[1-(4-Amino-3-methyl-1H-pyrazolo[3,4-d]pyrimidin-1-yl)ethyl]-6-chloro-2-[1-(2-hydroxyethyl)azetidin-3-yl]-3-methoxybenzonitrile] |
| < 10 nM | < 10 nM |  | COc1c(C(C)n2nc(C)c3c(N)ncnc32)cc(Cl)c(C#N)c1C1CN(C)C1 (single isomer, unassigned) [Example 262, 4-[1-(4-Amino-3-methyl-1H-pyrazolo[3,4-d]pyrimidin-1-yl)ethyl]-6-chloro-3-methoxy-2-(1-methylazetidin-3-yl)benzonitrile] |
| < 10 nM | < 10 nM |  | CCOc1c(C(C)n2nc(C)c3c(N)ncnc32)cc(Cl)c(C#N)c1C1CN(C)C1 (single isomer, unassigned) [Example 213, 4-[1-(4-Amino-3-methyl-1H-pyrazolo[3,4-d]pyrimidin-1-yl)ethyl]-6-chloro-3-ethoxy-2-(1-methylazetidin-3-yl)benzonitrile] |
| < 10 nM | < 10 nM |  | COc1c(C(C)n2nc(C)c3c(N)ncnc32)cc(Cl)c(C#N)c1C1CN(C[C@@H](C)O)C1 (stereo partly drawn) [Example 270, 4-[1-(4-Amino-3-methyl-1H-pyrazolo[3,4-d]pyrimidin-1-yl)ethyl]-6-chloro-2-{1-[(2R)-2-hydroxypropyl]azetidin-3-yl}-3-methoxybenzonitrile] |
| 10 to 50 nM | < 10 nM |  | COc1c(C(C)n2nc(C)c3c(N)ncnc32)cc(Cl)c(C)c1C1CN([C@@H](C)CO)C1 (some centres unmarked) [Example 157] |
| < 10 nM | < 10 nM |  | CCOc1c(C(C)n2nc(C)c3c(N)ncnc32)cc(Cl)c(C#N)c1C1CN(C[C@H](C)O)C1 (stereo partly drawn) [Example 220, 4-[1-(4-Amino-3-methyl-1H-pyrazolo[3,4-d]pyrimidin-1-yl)ethyl]-6-chloro-3-ethoxy-2-{1-[(2S)-2-hydroxypropyl]azetidin-3-yl}benzonitrile] |
| < 10 nM | < 10 nM |  | CCOc1c(C(C)n2nc(C)c3c(N)ncnc32)cc(Cl)c(F)c1C1CNC(=O)O1 (single isomer, unassigned) [Example 357, 5-{3-[1-(4-amino-3-methyl-1H-pyrazolo[3,4-d]pyrimidin-1-yl)ethyl]-5-chloro-2-ethoxy-6-fluorophenyl}-1,3-oxazolidin-2-one] |
| < 10 nM | < 10 nM |  | CCOc1c(C(C)n2nc(C)c3c(N)ncnc32)cc(Cl)c(C#N)c1C1CN(C[C@@H](C)O)C1 (stereo partly drawn) [Example 221, 4-[1-(4-Amino-3-methyl-1H-pyrazolo[3,4-d]pyrimidin-1-yl)ethyl]-6-chloro-3-ethoxy-2-{1-[(2R)-2-hydroxypropyl]azetidin-3-yl}benzonitrile] |
| 10 to 50 nM | < 10 nM |  | COc1c(C(C)n2nc(C)c3c(N)ncnc32)cc(Cl)c(C)c1C1CCN(C)CC1 (racemic) [Example 163, 1-{1-[5-Chloro-2-methoxy-4-methyl-3-(1-methylpiperidin-4-yl)phenyl]ethyl}-3-methyl-1H-pyrazolo[3,4-d]pyrimidin-4-amine] |
| < 10 nM |  |  | CCOc1c(C(C)n2nc(C)c3c(N)ncnc32)cc(Cl)c(C)c1-c1cncc(S(C)(=O)=O)c1 (single isomer, unassigned) [Example 198] |
| < 10 nM |  |  | COc1c(C(C)n2nc(C)c3c(N)ncnc32)cc(Cl)c(C#N)c1C1CN(C(C)C)C1 (single isomer, unassigned) [Example 264, 4-[1-(4-Amino-3-methyl-1H-pyrazolo[3,4-d]pyrimidin-1-yl)ethyl]-6-chloro-2-(1-isopropylazetidin-3-yl)-3-methoxybenzonitrile] |
